The results in this text go back to patent publication US8906879B2, “Combination for the treatment of cancer” (GlaxoSmithKline Intellectual Property (No. 2) Limited, priority 2010, dated 2014).

Usually IC50 stands for the concentration that inhibits the measured activity by half.

One assay relates to PL45. Nature of the assay: Cell growth inhibition assay (Cell Titer Glo), PL45. As to conditions: Homo sapiens, 72 h; single agent; PL45, KRAS G12D; 3 days. It counts as cell-based. As to the method:
(§1) BxPC-3, HuP-T4, PL45, Panc-02-03, Mia-PaCa, HPAF-II, SW1990, Panc-08-13, Capan-1, AsPC-1, Capan-2, HPAC, YAPC and Panc-1 lines were used in the study. BxPC-3, Mia-PaCa, HPAF-11, SW1990, AsPC-1, Capan-2 and YAPC were cultured in RPMI 1640 medium (cat#72400 047, Invitrogen) containing 10% fetal bovine serum (FBS) (cat#SH30071.03, Hyclone). Capan-1 and HuP-T4 were cultured in RPMI 1640 medium containing 20% FBS. PL45 and PANC-1 lines were cultured in DMEM (ATCC 30-2002) containing 10% FBS. Panc-02-03 and Panc-08-13 were cultured in RPMI 1640 medium containing 15% fetal bovine serum and ITSX (51500-056, Gibco). HPAC was cultured in RPMI 1640 medium containing 5% FBS, ITSX, 40 ng/ml Hydrocortism, and 10 ng/ml EGF (85570C-1MG, SAFC Biosciences).
(§2) All cells were cultured for a minimum of 72 hours prior to cell plating. […] ATP levels were determined by adding Cell Titer Glo® (Promega) according to the manufacturer's protocol. Briefly, Cell Titer Glo® was added to each plate, incubated for 30 minutes and then the luminescent signal was read on the SpectraMax L plate reader with a 0.5 sec integration time.
(§3) Inhibition of cell growth was estimated after treatment with compound or combination of compounds for three days and the signal was compared to cells treated with vehicle (DMSO). Cell growth was calculated relative to vehicle (DMSO) treated control wells. […]
For orientation: Cellular ATP, detected with luciferase, serves as a proxy for viable cell number.

The subject of another assay is AsPC-1. The experiment in a line: Cell growth inhibition assay (Cell Titer Glo), AsPC-1. Format: cell-based. Particulars: Homo sapiens, ASPC1, 72 h; single agent; AsPC-1, KRAS G12D; 3 days. As for the experimental part:
as §1, §2, §3

The subject of a further assay is HPAF-II. The experiment in a line: Cell growth inhibition assay (Cell Titer Glo), HPAF-II. Format: cell-based. As to conditions: Homo sapiens, 72 h, single agent, KRAS G12D, 3 days. As to the method: as §1, §2, §3
Another assay deals with Capan-2. Nature of the assay: Cell growth inhibition assay (Cell Titer Glo), Capan-2. As to conditions: Homo sapiens, 72 h; single agent; Capan-2, KRAS G12V; 3 days. Format: cell-based. As to the method: as §1, §2, §3
The next assay deals with SW1990. The experiment in a line: Cell growth inhibition assay (Cell Titer Glo), SW1990. Format: cell-based. Particulars: Homo sapiens, 72 h; single agent; SW1990, KRAS G12D; 3 days. As to the method:
as §1, §2, §3

Another assay concerns Panc-1. Nature of the assay: Cell growth inhibition assay (Cell Titer Glo), Panc-1. Particulars: for IC50: Homo sapiens, 72 h, single agent, Panc-1, KRAS G12D, 3 days; for sensitivity of cell growth (in words): KRAS mutant Panc-1 cells. It counts as cell-based, human. As to the method: as §1
(§4) All cells were cultured for a minimum of 72 hours prior to cell plating. Cells were assayed in a 96-well tissue culture plate (NUNC 136102) of RPMI medium containing 10% FBS for all cells at 1,000 cells per well. Approximately 24 hours after plating, cells were exposed to ten, three-fold serial dilutions of compound or the combination of the two agents at a constant molar to molar ratio of 1:1 Compound A to Compound B in RPMI media containing 10% FBS. Cells were incubated in the presence of compounds for 3 days. ATP levels were determined by adding Cell Titer Glo® (Promega) according to the manufacturer's protocol. Briefly, Cell Titer Glo® was added to each plate, incubated for 30 minutes and then the luminescent signal was read on the SpectraMax L plate reader with a 0.5 sec integration time.
as §3
(§5) Combination effects on potency were evaluated using Combination Index (CI) which was calculated with the back-interpolated IC50 values and the mutually non-exclusive equation derived by Chou and Talalay: CI=Da/IC50(a)+Db/IC50(b)+(Da×Db)/(IC50(a)×IC50(b)) […]
(§6) The combination effects on the response scale were quantified by Excess Over Highest Single Agent (EOHSA) based on the concept of nonlinear blending as described in detail by Liu et al, 2011. […] For single agent and combination treatments, cells were exposed to compounds at a fixed-dose-ratio, and dose response curves were fit to the experimental data and analyzed using regression models. At specified total dose levels of IC50 along the dose response curve, the dose combination (corresponding to IC50) was determined for making EOHSA statistical inferences. […]

In assay [1] the test system is KRAS mutant tumor lines, HuP-T4, PL45, Panc-02-03 and Mia-PaCa. Nature of the assay: Cell growth inhibition assay, four KRAS mutant lines. Format: cell-based. As to conditions: Homo sapiens; single agent; range over HuP-T4, PL45, Panc-02-03 and Mia-PaCa. As to the method: as §1, §4, §3, §5, §6
The test system of assay [2] is KRAS mutant lines HPAF-11, SW1990, Panc-08-13 and Capan-1. The assay is described as above. Format: cell-based. Particulars: Homo sapiens; single agent; over HPAF-11, SW1990, Panc-08-13 and Capan-1. As to the method:
as §1, §4, §3, §5, §6

In a further assay the test system is HuP-T4. Nature of the assay: Cell growth inhibition assay (Cell Titer Glo), HuP-T4. Particulars: Homo sapiens, 72 h; single agent; HuP-T4, KRAS G12V; 3 days. It counts as cell-based. As to the method: as §1, §2, §3
A further assay deals with Capan-1. Nature of the assay: Cell growth inhibition assay (Cell Titer Glo), Capan-1. Format: cell-based. As to conditions: Homo sapiens, 72 h; single agent; Capan-1, KRAS G12V; 3 days. As for the experimental part:
as §1, §2, §3

The next assay concerns HPAC. The experiment in a line: Cell growth inhibition assay (Cell Titer Glo), HPAC. Format: cell-based. As to conditions: Homo sapiens, 72 h, single agent, KRAS G12D, 3 days. As for the experimental part: as §1, §2, §3
A further assay deals with Panc-02-03. Nature of the assay: Cell growth inhibition assay (Cell Titer Glo), Panc-02-03. As to conditions: Homo sapiens, Panc 02.03, 72 h; single agent; Panc-02-03, KRAS G12D; 3 days. Format: cell-based. As for the experimental part:
as §1, §2, §3

A further assay relates to BxPC-3. Nature of the assay: Cell growth inhibition assay (Cell Titer Glo), BxPC-3. As to conditions: Homo sapiens, 72 h; single agent; BxPC-3, KRAS WT; 3 days. It counts as cell-based. As to the method: as §1, §2, §3
The next assay deals with Panc-08-13. The experiment in a line: Cell growth inhibition assay (Cell Titer Glo), Panc-08-13. Format: cell-based. As to conditions: Homo sapiens, 72 h; single agent; Panc-08-13, KRAS G12D; 3 days. As to the method:
as §1, §2, §3

A further assay has as its system Mia-PaCa. Nature of the assay: Cell growth inhibition assay (Cell Titer Glo), Mia-PaCa. It counts as cell-based. As to conditions: Homo sapiens, MIA PaCa-2, 72 h, single agent, KRAS G12C, 3 days. As to the method:
as §1, §2, §3

A further assay relates to YAPC. Nature of the assay: Cell growth inhibition assay (Cell Titer Glo), YAPC. It counts as cell-based. Particulars: Homo sapiens, 72 h, single agent, KRAS G12V, 3 days. As to the method:
as §1, §2, §3

On to `Nc1ccn([C@@H]2O[C@H](CO)[C@@H](O)C2(F)F)c(=O)n1` [Compound B, 4-amino-1-(2-deoxy-2,2-difluoro-β-D-erythro-pentofuranosyl)pyrimidin-2(1H)-on 2′,2′-difluoro-2′-deoxycytidine], for which the IC50 in the assay with PL45 is 0.013 ± 0.002 µM; in the assay with AsPC-1 it was greater than 1 µM; in the assay on HPAF-II, greater than 1 µM; in the assay with Capan-2, greater than 1 µM; in the assay on SW1990, no less than 1 µM; in the assay with Panc-1, greater than 1 µM. The IC50 in [1] is 0.007 to 0.088 µM; in assay [2], greater than 1 µM; with HuP-T4, 0.007 ± 0.005 µM; in the assay on Capan-1, greater than 1 µM; in the assay on HPAC, greater than 1 µM; with Panc-02-03, 0.088 ± 0.017 µM. Also, the IC50 in the assay with BxPC-3 is 0.008 µM; with Panc-08-13 it was greater than 1 µM; with Mia-PaCa it was 0.021 ± 0.001 µM; in the assay on YAPC, 0.012 ± 0.008 µM. In addition, the “sensitivity of cell growth (in words)” value in the assay on Panc-1 is “resistant”.

Consider `CC(=O)Nc1cccc(-n2c(=O)n(C3CC3)c(=O)c3c(Nc4ccc(I)cc4F)n(C)c(=O)c(C)c32)c1` [Compound A, N-{3-[3-cyclopropyl-5-(2-fluoro-4-iodo-phenylamino)-6,8-dimethyl-2,4,7-trioxo-3,4,6,7-tetrahydro-2H-pyrido[4,3-d]pyrimidin-1-yl]phenyl}acetamide], for which the IC50 in the assay on PL45 is 0.015 ± 0.004 µM; with AsPC-1, 0.005 µM; in the assay with HPAF-II, 0.059 ± 0.053 µM; in the assay on Capan-2 it was 0.01 ± 0.001 µM; in the assay on SW1990, 0.062 ± 0.043 µM; in the assay on Panc-1 it was greater than 1 µM. In addition, the IC50 is 0.001 to 0.059 µM in assay [1]; 0.059 to 0.193 µM in [2]; 0.001 ± 0.001 µM in the assay on HuP-T4; 0.193 ± 0.078 µM with Capan-1; 0.021 ± 0.006 µM with HPAC; 0.032 ± 0.013 µM in the assay with Panc-02-03. Further, the IC50 in the assay with BxPC-3 was 0.014 µM; in the assay with Panc-08-13, 0.067 ± 0.014 µM; with Mia-PaCa, 0.059 ± 0.028 µM; in the assay on YAPC it was greater than 1 µM. Further, the “sensitivity of cell growth (in words)” value in the assay on Panc-1 is recorded as “resistant”.
